Source: ChEMBL document CHEMBL3045636, “Synthesis, characterization, in vitro anticancer activity, and docking of Schiff bases of 4-amino-1,2-naphthoquinone” (Med Chem Res, 2013)
The source made the active and inactive calls. The rule behind the calls is not given here.

Columns and labels:
Format in all cases: functional, cell-based
HepG2 [1] = test: Cytotoxicity against Homo sapiens (human) HepG2 cells assessed as reduction of cell survival after 48 hr by MTT assay; conditions: HepG2, 48 h
MCF7 [2] = test: Cytotoxicity against Homo sapiens (human) MCF7 cells assessed as reduction of cell survival after 48 hr by MTT assay; conditions: MCF7, 48 h
MG-63 [3] = test: Cytotoxicity against Homo sapiens (human) MG63 cells assessed as reduction of cell survival after 48 hr by MTT assay; conditions: MG-63, 48 h
MG-63 [4] = test: Cytotoxicity against Homo sapiens (human) MG63 cells assessed as morphological changes at 10 uM after 48 hr by phase contrast microscopic analysis relative to untreated control
MCF7 [5] = test: Cytotoxicity against Homo sapiens (human) MCF7 cells assessed as morphological changes at 10 uM after 48 hr by phase contrast microscopic analysis relative to untreated control
HepG2 [6] = test: Cytotoxicity against Homo sapiens (human) HepG2 cells assessed as morphological changes at 10 uM after 48 hr by phase contrast microscopic analysis relative to untreated control

SMILES: O=C1C=C(/N=C\c2ccc([N+](=O)[O-])cc2)c2ccccc2C1=O
- IC50 (HepG2 [1]): 15.6 µM
- IC50 (MCF7 [2]): 14.7 µM
- IC50 (MG-63 [3]): 25 µM

SMILES: O=C1C=C(/N=C\c2ccccc2Cl)c2ccccc2C1=O
- IC50 (HepG2 [1]): 12.1 µM
- IC50 (MCF7 [2]): 14.3 µM
- IC50 (MG-63 [3]): 17.1 µM

SMILES: O=C1C=C(/N=C\c2cccc(Br)c2)c2ccccc2C1=O
- IC50 (HepG2 [1]): 12.2 µM
- IC50 (MCF7 [2]): 14.6 µM
- IC50 (MG-63 [3]): 17.3 µM

SMILES: COc1cc(/C=N\C2=CC(=O)C(=O)c3ccccc32)ccc1O
- IC50 (HepG2 [1]): 6.37 µM
- IC50 (MCF7 [2]): 8.24 µM
- IC50 (MG-63 [3]): 9.98 µM

SMILES: O=C1C=C(/N=C\c2ccccc2O)c2ccccc2C1=O
- IC50 (HepG2 [1]): 11 µM
- IC50 (MCF7 [2]): 13.2 µM
- IC50 (MG-63 [3]): 16.1 µM

SMILES: NC1=CC(=O)C(=O)c2ccccc21 [4-AMINO-[1,2]NAPHTHOQUINONE]
- IC50 (HepG2 [1]): 15.7 µM
- IC50 (MCF7 [2]): 14.8 µM
- IC50 (MG-63 [3]): 24.6 µM

SMILES: COc1cccc2c1C(=O)c1c(O)c3c(c(O)c1C2=O)C[C@@](O)(C(=O)CO)C[C@@H]3O[C@H]1C[C@H](N)[C@H](O)[C@H](C)O1 [DOXORUBICIN]
- IC50 (HepG2 [1]): 1.69 µM
- IC50 (MCF7 [2]): 2.67 µM
- IC50 (MG-63 [3]): 3.17 µM

SMILES: Cc1ccc(/C=N\C2=CC(=O)C(=O)c3ccccc32)cc1
- IC50 (HepG2 [1]): 10.4 µM
- IC50 (MCF7 [2]): 12.6 µM
- IC50 (MG-63 [3]): 15.1 µM

SMILES: O=C1C=C(/N=C\c2ccc(O)cc2)c2ccccc2C1=O
- IC50 (HepG2 [1]): 8.92 µM
- IC50 (MCF7 [2]): 11.1 µM
- IC50 (MG-63 [3]): 13.6 µM

SMILES: CN(C)c1ccc(/C=N\C2=CC(=O)C(=O)c3ccccc32)cc1
- IC50 (HepG2 [1]): 7.72 µM
- IC50 (MCF7 [2]): 10.6 µM
- IC50 (MG-63 [3]): 12.9 µM

SMILES: O=C1C=C(N=C2CCCCC2)c2ccccc2C1=O
- IC50 (HepG2 [1]): 7.37 µM
- IC50 (MCF7 [2]): 9.3 µM
- IC50 (MG-63 [3]): 11.5 µM

SMILES: O=C1C=C(/N=C\c2ccc(Cl)cc2Cl)c2ccccc2C1=O
- IC50 (HepG2 [1]): 15.7 µM
- IC50 (MCF7 [2]): 14.7 µM
- IC50 (MG-63 [3]): 24.3 µM

SMILES: O=C1C=C(N=C2CCCC2)c2ccccc2C1=O
- IC50 (HepG2 [1]): 7.77 µM
- IC50 (MCF7 [2]): 9.64 µM
- IC50 (MG-63 [3]): 11.9 µM

SMILES: COc1ccc(/C=N\C2=CC(=O)C(=O)c3ccccc32)cc1OC
- IC50 (HepG2 [1]): 9.15 µM
- IC50 (MCF7 [2]): 10.9 µM
- IC50 (MG-63 [3]): 13.3 µM

SMILES: O=C1C=CC(=O)c2ccccc21 [NAPHTHOQUINONE]
- IC50 (HepG2 [1]): 15.9 µM
- IC50 (MCF7 [2]): 16.9 µM
- IC50 (MG-63 [3]): > 25 µM

SMILES: O=C1C=C(/N=C\c2c[nH]c3ccccc23)c2ccccc2C1=O
- IC50 (HepG2 [1]): 10.1 µM
- IC50 (MCF7 [2]): 11.3 µM
- IC50 (MG-63 [3]): 13.8 µM

SMILES: O=C1C=C(/N=C\c2ccccc2[N+](=O)[O-])c2ccccc2C1=O
- IC50 (HepG2 [1]): 11.8 µM
- IC50 (MCF7 [2]): 14.4 µM
- IC50 (MG-63 [3]): 17 µM

SMILES: O=C1C=C(/N=C\C=C\c2ccccc2)c2ccccc2C1=O
- IC50 (HepG2 [1]): 10.6 µM
- IC50 (MCF7 [2]): 12.9 µM
- IC50 (MG-63 [3]): 14.8 µM

SMILES: O=C1C=C(/N=C\c2ccccc2)c2ccccc2C1=O
- IC50 (HepG2 [1]): 11.5 µM
- IC50 (MCF7 [2]): 13.8 µM
- IC50 (MG-63 [3]): 16.2 µM

SMILES: COc1ccc(/C=N\C2=CC(=O)C(=O)c3ccccc32)cc1
- IC50 (HepG2 [1]): 9.03 µM
- IC50 (MCF7 [2]): 11.2 µM
- IC50 (MG-63 [3]): 12.7 µM

SMILES: COc1cc(/C=N\C2=CC(=O)C(=O)c3ccccc32)cc(OC)c1OC
- IC50 (HepG2 [1]): 5.91 µM
- IC50 (MCF7 [2]): 7.65 µM
- Activity (MG-63 [4]): Active
- Activity (MCF7 [5]): Active
- IC50 (MG-63 [3]): 9.69 µM
- Activity (HepG2 [6]): Active
